We go through three compounds from ChEMBL document CHEMBL5584312, “Insight into the Interaction of Humulus lupulus L. Specialized Metabolites and Gastrointestinal Bitter Taste Receptors: In Vitro Study in STC-1 Cells and Molecular Docking” (J Nat Prod, 2024).

Values after ≈ are worked out from the molar mass of the structure shown. Active and inactive are the calls of the source. The calls are words filed in the database; no cut-off is given here.

Series [1] is described as follows: Anti-obesity activity in mouse STC-1 cells assessed as increase in GLP-1 secretion by measuring fold change at 5 to 10 ug/ml incubated for 120 mins by ELISA. It counts as functional. Conditions: dose 5-10 µg/ml, 2 h. (ELISA stands for enzyme-linked immunosorbent assay.)
Series [2] concerns STC-1. As to the kind of experiment: Anti-obesity activity in mouse STC-1 cells assessed as increase in Tas2r138 mRNA expression level at 5 to 10 ug/ml incubated for 2 hrs by RT-qPCR analysis. The class given is functional, cell-based. The settings on record: dose 5-10 µg/ml. For orientation: Real-time PCR tracks product formation cycle by cycle.
Series [3] in a line: Cytotoxicity against mouse STC-1 cells assessed as reduction in cell viability after 2 hrs by MTT assay. It counts as toxicity, cell-based. For orientation: Tetrazolium dyes change colour on reduction, which living cells bring about.
Series [4] deals with STC-1. The experiment in a line: Agonist activity at Tas2r in mouse STC-1 cells assessed as increase in intracellular calcium level measured every 10 sec for 5 mins by Fluo-4-AM dye based fluorescence analysis. The class given is cell-based. Conditions: filed as agonist, dose 5-10 µg/ml.
Series [5] can be described thus: Cytotoxicity against mouse STC-1 cells assessed as reduction in cell viability after 24 hrs by MTT assay. It counts as toxicity, cell-based.
A short description of series [6]: Cytotoxicity against mouse STC-1 cells assessed as cell viability at 10 ug/ml after 24 hrs by MTT assay relative to control. It counts as toxicity, cell-based. The settings on record: at 10 µg/mL, read-out: Activity.
Series [7] in a line: Anti-obesity activity in mouse STC-1 cells assessed as GLP-1 secretion at 5 ug/ml incubated for 120 mins by ELISA (reference value: 13.29 +/- 1.3 pg/ml). It counts as functional. The settings on record: dose 5 µg/ml, 2 h.
Series [8] in a line: Cytotoxicity against mouse STC-1 cells assessed as reduction in cell viability at 50 ug/ml after 2 to 24 hrs by MTT assay. It counts as toxicity, cell-based. The settings on record: time 2-24 hrs, dose 50 µg/ml.
Series [9] is described as follows: Anti-obesity activity in mouse STC-1 cells assessed as GLP-1 secretion at 10 ug/ml incubated for 120 mins by ELISA (reference value: 13.29 +/- 1.3 pg/ml). The class given is functional. Conditions: dose 10 µg/ml, 2 h.
In series [10] the test system is STC-1. The experiment in a line: Anti-obesity activity in mouse STC-1 cells assessed as increase in GLP-1 secretion incubated for 120 mins by ELISA. It counts as functional, cell-based. Conditions: dose 5-10 µg/ml.
In series [11] the test system is STC-1. As to the kind of experiment: Anti-obesity activity in mouse STC-1 cells assessed as increase in CCK secretion at 10 ug/ml incubated for 120 mins by EIA. It counts as functional, cell-based. Conditions: dose 10.0 µg/ml.
Series [12] is described as follows: Cytotoxicity against mouse STC-1 cells assessed as reduction in cell viability at 5 to 10 ug/ml after 2 to 24 hrs by MTT assay. The settings on record: dose lower 5 µg/ml, time lower 2 hrs, dose upper 10 µg/ml, time upper 24 hrs. The class given is toxicity, cell-based.
Series [13] relates to STC-1. As to the kind of experiment: Anti-obesity activity in mouse STC-1 cells assessed as increase in GLP-1 secretion at 10 ug/ml incubated for 120 mins by ELISA. The class given is functional, cell-based. The settings on record: dose 10.0 µg/ml.
Series [14] concerns STC-1. As to the kind of experiment: Anti-obesity activity in mouse STC-1 cells assessed as increase in Tas2r105 mRNA expression level at 5 to 10 ug/ml incubated for 2 hrs by RT-qPCR analysis. The settings on record: dose 5-10 µg/ml. It counts as functional, cell-based.
In series [15] the test system is STC-1. As to the kind of experiment: Anti-obesity activity in mouse STC-1 cells assessed as increase in Tas2r120 mRNA expression level at 5 to 10 ug/ml incubated for 2 hrs by RT-qPCR analysis. It counts as functional, cell-based. The settings on record: dose 5-10 µg/ml.
The subject of series [16] is STC-1. The experiment in a line: Anti-obesity activity in mouse STC-1 cells assessed as increase in […] mRNA expression level at 5 to 10 ug/ml incubated for 2 hrs by RT-qPCR analysis. It counts as functional, cell-based. Conditions: dose 5-10 µg/ml.
In series [17] the test system is STC-1. The experiment in a line: Anti-obesity activity in mouse STC-1 cells assessed as increase in Tas2r119 mRNA expression level at 5 to 10 ug/ml incubated for 2 hrs by RT-qPCR analysis. It counts as functional, cell-based. The settings on record: dose 5-10 µg/ml.
Series [18] in a line: Cytotoxicity against mouse STC-1 cells assessed as reduction in cell viability at 5 to 50 ug/ml after 2 to 24 hrs by MTT assay. It counts as toxicity, cell-based. The settings on record: dose lower 5 µg/ml, time lower 2 hrs, dose upper 50 µg/ml, time upper 24 hrs.
For series [19], the system named is STC-1. The experiment in a line: Anti-obesity activity in mouse STC-1 cells assessed as increase in GLP-1 secretion at 5 to 10 ug/ml incubated for 120 mins by ELISA. Conditions: dose 5-10 µg/ml. The class given is functional, cell-based.

On to `COc1cc(O)c(CC=C(C)C)c(O)c1C(=O)/C=C/c1ccc(O)cc1` [XANTHOHUMOL], for which the “fold change (FC)” value in [1] is listed as about 2. Besides, the outcome in [2] and in [11] was Active. For the same compound, in [3], the IC50 at 2 h stood at 35.3 µg/mL (≈ 99.6 µM). Also, the Activity entry in [4] is “Dose-Dependent Effect”; in [7], 20.39 pg/mL; in [8], “Toxic”; in series [9], 28.39 pg/mL; in [10], “Dose-Dependent Effect”. For the same compound, the IC50 at 24 h in [5] stood at 8 µg/mL (≈ 22.6 µM). In addition, in series [6], the viability at 24 h, 10 ug/ml is 35%.
With `CC(C)=CCC1=C(O)C(C(=O)C(C)C)=C(O)C(CC=C(C)C)(CC=C(C)C)C1=O`, the result in series [2], in [13], in [14], in series [15], in [16] and in series [11] was Active. Moreover, in [17], the outcome was Active. The Activity result in [12] was “Non-Toxic”; in [4] it was “Dose-Dependent Effect”.
For `CC(C)=CCC1=C(O)[C@@](O)(CC=C(C)C)C(=O)C(C(=O)C(C)C)=C1O`, the result in series [2] and in [16] was Active. Moreover, the Activity entry was “Dose-Dependent Effect” in series [4] and “Non-Toxic” in series [18]. Further, the result in [19] was inactive.

One may read the IC50 as the point on the concentration scale where inhibition reaches its midpoint.
